ChEMBL document CHEMBL5518222, “Retro-Inverso Collagen Modulator Peptide Derived from Serpin A1 with Enhanced Stability and Activity In Vitro” (J Med Chem, 2024)
Calls of active or inactive are those of the source. No cut-off for these calls is given here. Peptide text beside a SMILES is read from it. * marks the point of attachment. Palmitoyl = CCCCCCCCCCCCCCCC(=O)*

Assays:
NHDF [1] = test: Cytotoxicity against neonatal HDF cells assessed as reduction in cell viability incubated for 72 hrs by MTS assay; format: toxicity, cell-based; conditions: human
NHDF [2] = test: Upregulation of collagen level in neonatal HDF cell lysate at 20 uM incubated for 72 hrs by Western blot analysis; format: functional, subcellular; conditions: Homo sapiens
[3] = Upregulation of procollagen level in neonatal HDF cell conditioned media at 20 uM incubated for 72 hrs by Western blot analysis relative to control; format: functional, Homo sapiens, NHDF
NHDF [4] = test: Downregulation of enzyme-digested low molecular weight collagen level in neonatal HDF cell conditioned media at 20 uM incubated for 48 hrs by Western blot analysis; format: functional, cell-based; conditions: Homo sapiens
[5] = Stability of compound in human skin homogenate assessed as dermal protease mediated stability by measuring compound remaining measured after 24 hrs by HPLC-MS/MS analysis; format: ADME, tissue-based, Skin of body; conditions: read-out: Stability
[6] = molecular target: T1, Neutrophil elastase (Homo sapiens) (UniProt P08246); test: Inhibition of neutrophil elastase (unknown origin)
T1 sequence (whole entry): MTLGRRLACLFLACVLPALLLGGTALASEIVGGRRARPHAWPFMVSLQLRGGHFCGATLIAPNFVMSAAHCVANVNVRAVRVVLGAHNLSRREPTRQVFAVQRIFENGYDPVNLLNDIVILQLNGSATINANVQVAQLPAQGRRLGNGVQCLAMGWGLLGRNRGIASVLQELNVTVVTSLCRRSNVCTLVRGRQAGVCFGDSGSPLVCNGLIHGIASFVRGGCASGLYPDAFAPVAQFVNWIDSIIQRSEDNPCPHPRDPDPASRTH

[7] = molecular target: Matrix metalloproteinase-9 (Homo sapiens) (UniProt P14780); test: Inhibition of MMP-9 (unknown origin)
NHDF [8] = test: Inhibition of cell invasion in neonatal HDF cells assessed as decrease in number of migrated cells in acceptor chamber at 20 uM incubated for 72 hrs by Boyden chamber invasion assay; format: functional, cell-based; conditions: Homo sapiens

Chain of Matrix metalloproteinase-9 (Homo sapiens) (P14780 whole entry): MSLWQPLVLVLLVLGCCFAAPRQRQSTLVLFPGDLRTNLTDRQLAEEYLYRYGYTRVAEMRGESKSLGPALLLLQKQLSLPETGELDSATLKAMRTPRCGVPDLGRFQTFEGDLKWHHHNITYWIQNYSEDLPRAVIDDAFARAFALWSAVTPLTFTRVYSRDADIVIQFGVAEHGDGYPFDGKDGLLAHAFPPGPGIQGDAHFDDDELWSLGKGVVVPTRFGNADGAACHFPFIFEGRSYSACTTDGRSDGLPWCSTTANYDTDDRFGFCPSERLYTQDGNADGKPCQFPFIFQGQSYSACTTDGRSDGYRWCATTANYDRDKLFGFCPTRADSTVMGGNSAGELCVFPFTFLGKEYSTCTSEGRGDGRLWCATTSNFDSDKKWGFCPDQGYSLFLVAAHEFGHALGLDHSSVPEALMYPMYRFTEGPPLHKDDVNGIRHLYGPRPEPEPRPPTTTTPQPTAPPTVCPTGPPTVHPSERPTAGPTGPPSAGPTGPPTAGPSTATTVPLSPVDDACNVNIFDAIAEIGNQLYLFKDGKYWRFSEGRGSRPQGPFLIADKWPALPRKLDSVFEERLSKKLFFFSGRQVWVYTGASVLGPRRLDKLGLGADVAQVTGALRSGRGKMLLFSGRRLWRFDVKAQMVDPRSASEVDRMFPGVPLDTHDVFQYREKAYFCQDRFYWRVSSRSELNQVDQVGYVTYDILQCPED

Row | remaining at 24 h [5] | inhibition [6] | inhibition [7] | Molecule | Activity (NHDF [1]) | Activity (NHDF [2]) | Activity [3] | Activity (NHDF [4]) | inhibition (NHDF [8])
1 |  |  |  | CSCC[C@H](NC(C)=O)C(=O)NCC(=O)N[C@@H](CCCCN)C(=O)N[C@H](C(N)=O)C(C)C (Ac-MGKV-NH2) | Non-Toxic | Active | 116% | Active | 
2 |  |  |  | CC(=O)N[C@@H](CCCCN)C(=O)N[C@H](C(=O)N[C@H](C(=O)N[C@@H](CC(N)=O)C(N)=O)C(C)C)C(C)C | Non-Toxic | Active | 87% | Active | 
3 | 36% |  |  | CCCCCCCCCCCCCCCC(=O)N[C@@H](CCCCN)C(=O)N[C@H](C(=O)N[C@H](C(=O)N[C@@H](CCCCN)C(=O)N[C@@H](CO)C(=O)O)[C@@H](C)O)[C@@H](C)O (Palmitoyl-KTTKS-OH) |  |  |  |  | 
4 |  |  |  | Ac-MGKVVNPTQK-NH2 |  | Active | 57% | Active | 
5 |  |  |  | CC(=O)N[C@H](C(=O)N[C@@H](CC(N)=O)C(=O)N1CCC[C@H]1C(=O)N[C@H](C(N)=O)[C@@H](C)O)C(C)C (Ac-VNPT-NH2) | Non-Toxic | Active | 48% | Active | 
6 |  |  |  | CC(=O)N1CCC[C@H]1C(=O)N[C@H](C(=O)N[C@@H](CCC(N)=O)C(=O)N[C@@H](CCCCN)C(N)=O)[C@@H](C)O (Ac-PTQK-NH2) | Non-Toxic | Active | 31% | Active | 
7 | 99.6% | inactive | inactive | CC(=O)N[C@H](CC(N)=O)C(=O)N[C@@H](C(=O)N[C@@H](C(=O)N[C@H](CCCCN)C(N)=O)C(C)C)C(C)C | Non-Toxic | Active |  |  | Active
8 |  |  |  | CC(=O)N[C@H](CCCCN)C(=O)N[C@@H](C(=O)N[C@@H](C(=O)N[C@H](CC(N)=O)C(N)=O)C(C)C)C(C)C | Non-Toxic | Active |  |  | 
